Experimental data reported in patent US12036212B2, “Enhancement of tumor response to chemotherapy by activation of the asmase/ceramide pathway through timed administration of a short-acting anti-angiogenic agent” (Memorial Sloan-Kettering Cancer Center, priority 2014, dated 2024).

Key:
ASMase = ASMase activity radioenzymatic assay in BAEC; format: cell-based, bovine
Description: BAEC were established from the intima of bovine aorta as described^1. Stock cultures were grown in 100-mm dishes in Dulbecco's modified Eagle's medium (DMEM) supplemented with glucose (1 g/liter), 5% heat-inactivated calf serum (CS), penicillin (50 units/ml), and streptomycin (50 μg/ml). Purified human recombinant bFGF (1 ng/ml; R&D Systems, Inc., Minneapolis, MN) was added every other day during the exponential growth phase. […] These plateau phase cells were either used for experiments, or further sub-cultured (up to a maximum of 10 times) at a split ratio of 1:8. For sub-culturing, monolayers were dissociated with STV (0.05% trypsin and 0.02% EDTA in PBS) for 2-3 min at 22° C., washed twice in 5% CS-DMEM, and resuspended in DMEM with supplements as above. These mild conditions of trypsinization were sufficient to detach cells but not injure, stimulate, or affect cell function in a detectable way. BAEC were maintained at 37° C. in 10% CO2 humidified incubators.
ASMase activity was quantified by radioenzymatic assay using [^14C-methylcholine]sphingomyelin (Amersham) as substrate as described (Schissel et al. J Biol Chem, 271, 18431-18436, 1996). Cell lysates were incubated with [^14C-methylcholine]-sphingomyelin substrate (0.026 mCi/9.5 nmol) in 250 mM sodium acetate, pH 5.0 supplemented with 0.1% Triton X-100 and 1 mM EDTA or 0.1 mM ZnCl. Reactions were terminated after 1 h with CHCl3:MeOH:1N HCl (100:100:1, v/v/v), and [^14C-methylcholine]phosphocholine product in the aqueous layer of the Folch extract was quantified using a Beckman Packard 2200 CA Tricarb scintillation counter. For detection of ASMase activity in patients, 10 μl of serum was used.
To test the effect of chemotherapy on ASMase signaling and ceramide production, BAEC were treated with paclitaxel (100 nM) and ASMase activity was determined by radioenzymatic assay (Rotolo et al, infra) using [^14C-methylcholine] sphingomyelin (Amersham) as substrate (FIG. 1A). Induction of ASMase activity was observed within 5 minutes after treatment, and the activation continued for 30 minutes. Ceramide generation was monitored using the diacylglycerol kinase assay (Stancevic et al. PLoS ONE 8, e69025, 2013). […] In further support of this, pre-incubation of BAEC with nystatin prior to treatment with chemotherapy inhibits chemotherapy-induced apoptosis (FIG. 3).
To determine the generality of the results observed, experiments were carried out using an additional endothelial cell line, human coronary artery endothelial cells (HCAEC); experiments were also performed using a different chemotherapeutic agent. […] Next, HCAEC were treated with paclitaxel (100 nM) (data not shown) and etoposide (50 μM) (FIG. 1F), and ceramide generation was evaluated.
To further establish the generality of ASMase activation by various chemotherapeutic agents, BAEC and HCAEC were treated with increasing doses of cisplatin (0.1-50 μM) (data not shown). […] The ASMase/ceramide pathway was activated by chemotherapeutic agents that belong to different classes of chemotherapeutic agents, such as: taxanes, topoisomerase inhibitors, and nucleoside analog metabolic inhibitors. Since such chemotherapy agents are characterized by distinct mechanisms of action in tumor cells, it is surprising that a group of such distinct agents converges on a common molecular (ASMase/ceramide) axis in endothelium. The present confirmation that distinct chemotherapeutic agents activate the ASMase/ceramide pathway permits the present inventors to take into account the results of experiments using single dose radiotherapy, which has been reported to activate the same pathway (Rao, S. S. et al., Axitinib sensitization of high Single Dose Radiotherapy. Radiotherapy and Oncology: Journal of the European Society for Therapeutic Radiology and Oncology 111, 88-93, doi:10.1016/j.radonc.2014.02.010 (2014)).
Gemcitabine was able to activate ASMase in cultured endothelial cells. […]

HCT116 tumors = assay: Tumor response in vivo, HCT116 tumors; set-up: species or system mice
Description: Human HCT-116 colon cancer cells and MCA/129 murine sarcoma cells were maintained in DMEM with 10% fetal bovine serum, with 100 u/ml penicillin and 100 μg/ml streptomycin. Cells were grown as monolayers in 75 cm^2 culture flasks at 37° C. in 10% CO2 humidified incubators. Cells were trypsinized, washed in PBS and diluted in Matrigel/PBS solution (40:60 v/v) for HCT-116 xenografts or in PBS for MCA/129 syngeneic tumor grafts. Cells (3×10^6 for HCT-116 or 1×10^6 for MCA129) were injected subcutaneously into the flanks of mice (Garcia-Barros et al. Science 300, 1155-1159, 2003).
SCID^asmase+/+ and SCID^asmase−/− mice harboring HCT-116 tumors (50-100 mm^3) were treated with three i.p. injections of 35-50 mg/kg etoposide (Novaplus®), or 15-25 mg/kg paclitaxel (Hospira), or 1-6 mg/kg cisplatin (APP Pharmaceuticals, LLC) in a bi-weekly schedule with or without i.v. DC101 (1600 μg/25 gm mouse), or control IgG. For sarcoma studies, Sv129/Bl6 mice harboring MCA/129 tumors (100-150 mm^3) were treated with three i.p. injections of 240 mg/kg gemcitabine on a bi-weekly schedule with or without i.v. DC-101. Tumor volume, based on caliper measurements (length and width in millimeters), was calculated daily using the following formula: 0.5×length×width^2.
Tumor response to chemotherapy in the colorectal HCT116 xenograft model was evaluated. SCID^asmase+/+ or SCID^asmase−/− mice harboring HCT116 tumors (50-70 mm^3) were treated with paclitaxel (15/20/25 mg/kg i.p.) three times biweekly. […] To test that the ASMase requirement is mediated by the generation of ceramide, SCID^asmase+/+ mice harboring tumors as in FIG. 5A were treated with etoposide (35/35/50 mg/kg i.p.) biweekly in the presence of anti-ceramide or isotype control antibody.
To further test the ability of cisplatin to affect endothelial cell apoptosis and tumor response in vivo, effects of cisplatin on tumor growth were evaluated.
Thus, to further explore the notion of endothelial ASMase signaling requirement in response to chemotherapy, DC101 was used in combination with paclitaxel treatment.

Row | SMILES | ASMase activation (ASMase; etoposide 50 μM, cisplatin 0.1-50 μM, gemcitabine 100 nM time-course) | Tumor growth delay (HCT116 tumors; cisplatin 3×6 mg/kg) | ASMase activation continued for (ASMase; paclitaxel 100 nM) [min] | Induction of ASMase activity, time after treatment (ASMase; paclitaxel 100 nM) [min] | Tumor response, agent alone (HCT116 tumors; SCID asmase+/+, 3×15 mg/kg paclitaxel or 1600 μg DC101 alone) | Complete tumor response after (HCT116 tumors; SCID asmase+/+, paclitaxel 15/20/25 mg/kg i.p. three times biweekly) [days] | Tumor response (HCT116 tumors; SCID asmase−/−, paclitaxel 15/20/25 mg/kg i.p. three times biweekly)
1 | N.N.[Cl][Pt][Cl] [cisplatin] | failed to activate ASMase | did not induce significant HCT116 tumor growth delay | – | – | – | – | –
2 | CC(=O)O[C@H]1C(=O)[C@@]2(C)[C@H]([C@H](OC(=O)c3ccccc3)[C@]3(O)C[C@H](OC(=O)[C@H](O)[C@@H](NC(=O)c4ccccc4)c4ccccc4)C(C)=C1C3(C)C)[C@]1(OC(C)=O)CO[C@@H]1C[C@@H]2O [paclitaxel] | – | – | 30 | ≤ 5 | slightly affected | 10 ± 1 | no significant tumor response
